Measured values: patent publication US10744114B2, “Use of eupatilin as pharmaceutical composition for prevention and treatment of fibrosis using EMT inhibitory activity” (OSTEONEUROGEN INC., priority 2016, dated 2020)

System: ONGHEPA1 cells
Assay: TGF-β-induced fibrosis of ONGHEPA1 cells (microscope)
Type: cell-based, mouse
Conditions: for inhibition of the progress of fibrosis (differentiation into myofibroblasts): TGF-β 5 ng/mL plus 50 μM compound, 24 hr
From the text: The liver tissue was separated from C57BL/6 mice and a single-cell suspension thereof was made, and immortalized cells were obtained through continuous culture and were confirmed to be mesenchymal stem cells (MSC) of HSC via RT-PCR (Reverse Transcription Polymerase Chain Reaction) using MC (Immunohistochemistry) and FACS (Fluorescence-Activated Cell Sorting). This cell line was called “ONGHEPA1”, and was deposited with the Korean Collection for Type Cultures (KCTC) of the Korea Research Institute of Bioscience and Biotechnology and assigned accession number KCTC13086BP.
Using such properties of HSC, the fibrotic characteristics of ONGHEPA1 were measured. To induce fibrosis, TGF-β (transforming growth factor beta) was added, and the morphologies of the cells were observed after 6 hr, 12 hr, 24 hr, and 48 hr. Consequently, fibrosis was confirmed to progress considerably after 24 hr and further progress after 48 hr (A of FIG. 6).
While ONGHEPA1 cells were incubated, they were treated with TGF-β to induce fibrosis, and 50 μM of eupatilin was added to the culture medium.
In order to more clearly evaluate the effect of eupatilin as above, changes were measured when ONGHEPA1 cells were first treated with eupatilin, washed to remove eupatilin and then treated with TGF-β to induce fibrosis. […] This means that eupatilin is directly associated with the course of fibrosis to thus inhibit the progress of fibrosis.
On the contrary, changes were measured when ONGHEPA1 cells were first treated with TGF-β to induce fibrosis, washed to remove TGF-β and then treated with eupatilin. […] Even when fibrosis was already progressed, eupatilin was able to restore the cells to their original normal condition.
In order to more clearly evaluate whether eupatilin was able to restore the cells that already undergone fibrosis to normal cells, changes were measured when ONGHEPA1 cells were treated with TGF-β for 24 hr to induce complete fibrosis and then treated with eupatilin. […] This means that fibrosis that has progressed considerably can be effectively treated using eupatilin.
The effects of various chromone derivatives other than eupatilin on fibrosis were measured in the same manner as in Example 3-3. While ONGHEPA1 cells were incubated, fibrosis was induced by TGF-β, and a chromone derivative was added at a concentration of 50 μM to the culture medium.

## COc1ccc(-c2cc(=O)c3c(O)c(OC)c(O)cc3o2)cc1OC [eupatilin, 2-(3,4-dimethoxyphenyl)-5,7-dihydroxy-6-methoxy-chromone]
  inhibition of the progress of fibrosis (differentiation into myofibroblasts): fibrosis were not observed
Listed as Chemical Formula 2
  inhibition of the progress of fibrosis (differentiation into myofibroblasts): superior fibrosis-inhibiting effects
TGF-β 1 to 12 hr, washed, then eupatilin 50 μM 24 hr
  restoration of cells after TGF-β pretreatment: normal cells such as a control group were maintained
TGF-β 24 hr, washed, then eupatilin 50 μM and TGF-β 24 hr
  restoration of completely fibrotic cells: restore the cells in which fibrosis has been completely induced by TGF-β to their normal condition
Eupatilin 2 to 6 hr, washed, then TGF-β 24 hr
  inhibition of the progress of fibrosis after pretreatment: the progress of fibrosis was not inhibited
Eupatilin pretreatment, washed, then TGF-β
  influence on normal HSC: no influence on normal HSC
